Experimental data taken from US8822515B2, “Heterocyclic benzoxazole compositions as inhibitors of hepatitis C virus” (University of Maryland, Baltimore County, priority 2009, dated 2014).
Entries after “also recorded” stand apart in the source; their conditions may differ. Read-outs that look alike come from different tables or passages of the source.

Legend:
HCV NTPase/helicase [1] = target: T1, HCV NTPase/helicase (Hepatitis C virus genotype 1a, UniProt P27958); assay: NTPase/Helicase assay, HCV helicase, DNA substrate; type: biochemical; details: for IC50 / inhibition of NTPase/helicase of HCV (in words): DNA substrate
Protocol: Inhibitory activity of HCV was measured using a DNA substrate.
NTPase/Helicase activity determined by a previously described method. Helicase activity was determined as a function of increasing concentrations of the compounds in the presence of ATP adjusted to 105 μM, 235 μM, for HCV, JEV, and DENV NTPase/Helicase, respectively and […] of DNA substrate (concentration of nucleotide base). The substrate and released strand were separated in TBE polyacrylamide gel and visualized by exposition of dried gel onto X-ray film for 20 h. The part of the gels corresponding to the released strand were excised, and the ^32P radioactivity was quantified.

HCV NTPase/helicase [2] = target: T1, HCV NTPase/helicase; assay: NTPase/Helicase assay, HCV helicase, RNA substrate; type: biochemical
Protocol: NTPase/Helicase activity determined by a previously described method. […] The substrate and released strand were separated in TBE polyacrylamide gel and visualized by exposition of dried gel onto X-ray film for 20 h. The part of the gels corresponding to the released strand were excised, and the ^32P radioactivity was quantified.

HCV ATPase = HCV ATPase (Hepatitis C virus genotype 1a, UniProt P27958); assay: ATPase analysis of HCV NTPase/helicase; type: biochemical
[3] = tested on: HCV replicon in Huh7 ET (luc-ubi-neo/ET) cell line; assay: HCV replicon assay (luciferase based), antiviral activity; type: cell-based, Hepatitis C Virus; set-up: SI50: unit not given here; details: for EC50: Hepatitis C virus, Huh7 ET; for SI50: selectivity index, luciferase based replicon assay; for activity against HCV in replicon assay (in words): whole cells
Excerpt: (§1) To determine if the compounds are active in whole cells, they were screened using an HCV replicon assay. […] Compound 2b also has similar selectivity towards HCV as human interferon alpha-2b (rIFNa-2b), the positive control.
In the replicon assays a Huh7 ET (luc-ubi-neo/ET) cell line is used. This particular construct contain the 5′NTR (IRES) of HCV, producing a firefly luciferase (luc), ubiquitin (ubiq) and neomycin phosphotranferase (neo) fusion protein. This modification makes the cell line more robust and provides the additional stability needed for antiviral screening. […]

[4] = tested on: Huh7 ET (luc-ubi-neo/ET) cell line; assay: HCV replicon assay (luciferase based), cytotoxicity; type: cell-based; details: cytotoxicity in luciferase based replicon assay, high test conc 20 μM (rIFNa-2b 2)
Excerpt: as §1
In the replicon assays a Huh7 ET (luc-ubi-neo/ET) cell line is used. This particular construct contain the 5′NTR (IRES) of HCV, producing a firefly luciferase (luc), ubiquitin (ubiq) and neomycin phosphotranferase (neo) fusion protein. This modification makes the cell line more robust and provides the additional stability needed for antiviral screening. The effects of the drug were examined in triplicate at a single high-test concentration of 20 μM on HCV RNA-derived LUC activity and cytotoxicity.

integrase = assay: Integrase test; type: biochemical
HCV = assay: RNA based confirmatory assay, antiviral activity; type: cell-based, Hepatitis C Virus; set-up: SI50: unit not given here; details: for EC50: Hepatitis C virus; for SI50: selectivity index, RNA based confirmatory assay
[5] = RNA based confirmatory assay, cytotoxicity; type: cell-based; details: cytotoxicity in RNA based confirmatory assay; high test conc 20 μM (rIFNa-2b 2)
[6] = read-out: HCV Helicase (IC50) DNA (converted)
[7] = read-out: HCV Helicase (IC50) RNA
[8] = HCV Helicase (IC50) DNA, in brackets, molar value in brackets
[9] = HCV Helicase (IC50) RNA, in brackets, molar value in brackets

T1 sequence (P27958 1027-1657): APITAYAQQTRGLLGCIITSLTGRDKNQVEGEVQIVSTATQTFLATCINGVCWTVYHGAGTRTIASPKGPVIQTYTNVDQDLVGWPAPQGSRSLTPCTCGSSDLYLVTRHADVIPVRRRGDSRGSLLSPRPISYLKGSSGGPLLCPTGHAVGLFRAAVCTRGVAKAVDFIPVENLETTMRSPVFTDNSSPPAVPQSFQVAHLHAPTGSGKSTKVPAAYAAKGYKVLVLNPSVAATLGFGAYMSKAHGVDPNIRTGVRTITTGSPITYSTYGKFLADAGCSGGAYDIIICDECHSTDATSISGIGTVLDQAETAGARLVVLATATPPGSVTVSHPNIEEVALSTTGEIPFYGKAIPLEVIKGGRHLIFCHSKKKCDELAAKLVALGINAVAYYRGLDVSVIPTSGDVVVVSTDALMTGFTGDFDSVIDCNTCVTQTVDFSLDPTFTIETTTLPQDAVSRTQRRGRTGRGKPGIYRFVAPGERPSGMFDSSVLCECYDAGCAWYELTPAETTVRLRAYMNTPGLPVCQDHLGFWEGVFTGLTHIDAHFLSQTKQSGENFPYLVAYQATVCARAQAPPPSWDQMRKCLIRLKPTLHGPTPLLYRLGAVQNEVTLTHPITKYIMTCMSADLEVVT
Sequence of HCV ATPase (P27958 1027-1657): as above

Compound	activity in HCV NTPase/helicase assay (in words) (HCV NTPase/helicase [1])	IC50 (HCV NTPase/helicase [1]; [6]) [µM]	IC50 (HCV NTPase/helicase [2]; [7]) [µM]	IC50 (HCV ATPase; read-out: ATPase (IC50)) [µM]	EC50 [3] [µM]	SI50 [3]	activity against HCV in replicon assay (in words) [3]	IC50 [4] [µM]	inhibition of NTPase/helicase of HCV (in words) (HCV NTPase/helicase [1])	IC50 (HCV NTPase/helicase [1]; HCV Helicase (IC50) DNA) [µM]	IC50 (HCV NTPase/helicase [1]; [8]) [µM]	inhibition of HCV helicase with RNA substrate (in words) (HCV NTPase/helicase [2])	IC50 (HCV NTPase/helicase [2]; HCV Helicase (IC50) RNA) [µM]	IC50 (HCV NTPase/helicase [2]; [9]) [µM]	IC50 (HCV ATPase) [µM]	activity against integrase (integrase)	melting point [°C]	EC50 (HCV) [µM]	SI50 (HCV)	IC50 [5] [µM]
CNC(=O)c1cccc2oc(-c3ccccc3O)nc12 [Compound 10]	inactive; also recorded: did not show any activity	> 1860	> 1860	> 1860	1.41	4.5	still active against HCV	6.32	–	–	–	–	–	–	–	–	–	–	–	–
COC(=O)c1cccc2oc(-c3ccc4c(OCc5ccccc5)cccc4c3O)nc12 [Compound 2a, 2-(5-Benzyloxy-1-hydroxy-naphthalene-2-yl)-benzoxazole-4-carboxylic Acid Methyl Ester]	–	–	–	–	1.13	>17.7	–	> 20	inhibit	3.76	3.8	inhibitory	20.4	20	> 1180	inactive	183.5 to 185	–	–	–
O=C(O)c1cccc2oc(-c3ccccc3O)nc12 [Compound 9]	inactive; also recorded: did not show any activity	> 1960	> 1960	> 1960	0.21	16.7	still active against HCV	3.51	–	–	–	–	–	–	–	–	–	–	–	–
COC(=O)c1cccc2oc(-c3ccc4ccccc4c3O)nc12 [Compound 6, 2-(1-Hydroxy-naphthalen-2-yl)benzoxazole-4-carboxylic Acid Methyl Ester]	–	–	–	–	0.21	7.67	–	1.61	inhibit	539	539	inhibitory	592	591	> 1570	inactive	–	1.32	>1.27	1.68
COC(=O)c1cccc2oc(-c3cccc4oc(-c5ccccc5O)nc34)nc12 [Compound 1, UK-1]	inactive; also recorded: did not show any activity	378	> 1290	> 1290	0.21	–	still active against HCV	11.6	inhibit	–	–	–	–	–	–	–	–	0.72	–	> 20
COC(=O)c1cccc2oc(-c3ccccc3O)nc12 [Compound 8]	inactive; also recorded: did not show any activity	> 1860	> 1860	> 1860	0.32	16.2	still active against HCV	5.2	–	–	–	–	–	–	–	–	–	0.58	>8.93	5.18
COC(=O)c1cccc2oc(-c3ccc4ccc(OCc5ccccc5)cc4c3O)nc12 [Compound 2b, 2-(7-benzyloxy-1-hydroxy-napthalen-2-yl)-benzoxazole-4 Carboxylic Acid Methyl Ester]	–	–	–	–	0.47	>42.6	–	> 20	inhibit	2.59	2.6	inhibitory	19.7	20	> 1180	inactive	–	–	–	–
